Assay results published in patent US9815832B2 (priority 2013, dated 2017).
Counter-ions that a name gives are not always drawn.

The compounds below were run against human recombinant PDE4B (Homo sapiens (Human), UniProt Q07343, S133E/S654A/S659A/S661A). Conditions: read-out: Human PDE4B FL.
human recombinant PDE4B, sequence (Q07343 122-736 S133E/S654A/S659A/S661A): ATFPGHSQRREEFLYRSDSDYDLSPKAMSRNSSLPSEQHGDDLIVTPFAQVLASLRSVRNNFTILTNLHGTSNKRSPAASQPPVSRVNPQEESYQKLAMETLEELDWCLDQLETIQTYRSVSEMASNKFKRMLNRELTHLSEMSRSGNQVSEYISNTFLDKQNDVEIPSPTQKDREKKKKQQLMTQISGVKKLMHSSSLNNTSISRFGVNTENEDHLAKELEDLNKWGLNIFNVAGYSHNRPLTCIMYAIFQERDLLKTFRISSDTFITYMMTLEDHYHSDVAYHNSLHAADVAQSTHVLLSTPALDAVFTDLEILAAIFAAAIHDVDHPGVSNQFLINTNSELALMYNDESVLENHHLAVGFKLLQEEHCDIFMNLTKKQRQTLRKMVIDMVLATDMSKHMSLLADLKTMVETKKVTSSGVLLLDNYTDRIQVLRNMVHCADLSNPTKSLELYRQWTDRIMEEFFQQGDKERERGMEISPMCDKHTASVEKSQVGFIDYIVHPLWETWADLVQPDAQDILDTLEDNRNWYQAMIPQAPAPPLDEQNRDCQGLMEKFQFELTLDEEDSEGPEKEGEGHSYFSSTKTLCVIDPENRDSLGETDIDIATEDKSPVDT
Procedure: Reactions are incubated for 30 min at 25° C. The addition of 20 μL of 8 mg/mL yitrium silicate SPA beads (PerkinElmer) stops the reaction. The plates are sealed (TopSeal, PerkinElmer) and the beads are allowed to settle for 8 hrs, after which they are read on the Trilux Microbeta overnight.

First: Cc1cc(-n2c(C(=O)NC3CC3)nc3cccnc32)c(Cl)cc1F [Example 84, 3-(2-Chloro-4-fluoro-5-methylphenyl)-N-cyclopropyl-3H-imidazo[4,5-b]pyridine-2-carboxamide]
Second: Cc1cc(Cl)ccc1-n1c(C(=O)NC2CC2)nc2cccnc21 [Example 26, 3-(4-Chloro-2-methylphenyl)-N-cyclopropyl-3H-imidazo[4,5-b]pyridine-2-carboxamide]
The IC50 of the first is 52-fold higher: 16.6 µM for the first, 0.319 µM for the second.

Going from `Cc1cc(Cl)ccc1-n1c(C(=O)N2CC(F)C2)nc2cccnc21` [Example 35, [3-(4-Chloro-2-methylphenyl)-3H-imidazo[4,5-b]pyridin-2-yl](3-fluoroazetidin-1-yl)methanone] to `Cc1cc(Cl)ccc1-n1c(C(=O)N2CCC2)nc2cccnc21` [Example 34, Azetidin-1-yl[3-(4-chloro-2-methylphenyl)-3H-imidazo[4,5-b]pyridin-2-yl]methanone], the IC50 falls from 1.13 µM to 0.399 µM (2.8-fold). The second is the more potent here.

Going from `Cc1ccc(-n2c(C(=O)NC3CC3)nc3cccnc32)c(C)c1` [Example 59, N-Cyclopropyl-3-(2,4-dimethylphenyl)-3H-imidazo[4,5-b]pyridine-2-carboxamide] to `Cc1ccc(-n2c(C(=O)NC3CC3)nc3cccnc32)c(Cl)c1` [Example 88, 3-(2-Chloro-4-methylphenyl)-N-cyclopropyl-3H-imidazo[4,5-b]pyridine-2-carboxamide], the IC50 rises from 1.02 µM to 3.7 µM (3.6-fold).

Going from `O=C(NC1CC1)c1nc2cccnc2n1-c1cccc(Cl)c1F` [Example 78, 3-(3-Chloro-2-fluorophenyl)-N-cyclopropyl-3H-imidazo[4,5-b]pyridine-2-carboxamide, trifluoroacetate salt] to `O=C(NC1CC1)c1nc2cccnc2n1-c1cc(F)ccc1Cl` [Example 90, 3-(2-Chloro-5-fluorophenyl)-N-cyclopropyl-3H-imidazo[4,5-b]pyridine-2-carboxamide], the IC50 rises from 0.387 µM to 9.23 µM (24-fold).

First: Cn1ncc2ccc(-n3c(C(=O)NC4CC4)nc4cccnc43)cc21 [Example 86, N-Cyclopropyl-3-(1-methyl-1H-indazol-6-yl)-3H-imidazo[4,5-b]pyridine-2-carboxamide]
Second: Cc1ccc(-n2c(C(=O)NC3CC3)nc3cccnc32)cn1 [Example 85, N-Cyclopropyl-3-(6-methylpyridin-3-yl)-3H-imidazo[4,5-b]pyridine-2-carboxamide]
The IC50 of the first is 3.2-fold higher: 24.5 µM for the first, 7.73 µM for the second.

`O=C(NC1CC1)c1nc2cccnc2n1-c1ccc(Cl)cc1F` [Example 23, 3-(4-Chloro-2-fluorophenyl)-N-cyclopropyl-3H-imidazo[4,5-b]pyridine-2-carboxamide] and `O=C(NC1CC1)c1nc2cccnc2n1-c1ccc(F)cc1F` [Example 43, N-Cyclopropyl-3-(2,4-difluorophenyl)-3H-imidazo[4,5-b]pyridine-2-carboxamide] are within 1.5-fold of each other in IC50: 0.632 µM for the first, 0.927 µM for the second.

First: O=C(NC1CC1)c1nc2cccnc2n1-c1cccc(F)c1 [Example 65, N-Cyclopropyl-3-(3-fluorophenyl)-3H-imidazo[4,5-b]pyridine-2-carboxamide]
Second: O=C(NC1CC1)c1nc2cccnc2n1-c1ccc(F)c(F)c1 [Example 62, N-Cyclopropyl-3-(3,4-difluorophenyl)-3H-imidazo[4,5-b]pyridine-2-carboxamide]
The IC50 of the first is 5.4-fold higher: 0.188 µM for the first, 0.0349 µM for the second.

First: O=C(c1nc2cccnc2n1-c1ccc(Cl)c(F)c1)N1CC(F)C1 [Example 21, [3-(4-Chloro-3-fluorophenyl)-3H-imidazo[4,5-b]pyridin-2-yl](3-fluoroazetidin-1-yl)methanone]
Second: Cc1ccc(-n2c(C(=O)N3CC(F)C3)nc3cccnc32)cc1F [Example 19, (3-Fluoroazetidin-1-yl)[3-(3-fluoro-4-methylphenyl)-3H-imidazo[4,5-b]pyridin-2-yl]methanone]
The IC50 of the first is 6.6-fold lower: 0.0426 µM for the first, 0.281 µM for the second.

First: O=C(NC1CC1)c1nc2cccnc2n1-c1cncc(Cl)c1 [Example 37, 3-(5-Chloropyridin-3-yl)-N-cyclopropyl-3H-imidazo[4,5-b]pyridine-2-carboxamide]
Second: CCNC(=O)c1nc2cccnc2n1-c1cncc(Cl)c1 [Example 81, 3-(5-Chloropyridin-3-yl)-N-ethyl-3H-imidazo[4,5-b]pyridine-2-carboxamide]
The IC50 of the first is 20-fold lower: 0.409 µM for the first, 8.27 µM for the second.

First: COc1ccc(-n2c(C(=O)NC3CC3)nc3cccnc32)cc1OC [Example 87, N-Cyclopropyl-3-(3,4-dimethoxyphenyl)-3H-imidazo[4,5-b]pyridine-2-carboxamide]
Second: COc1ccc(-n2c(C(=O)NC3CC3)nc3cccnc32)cc1 [Example 58, N-Cyclopropyl-3-(4-methoxyphenyl)-3H-imidazo[4,5-b]pyridine-2-carboxamide]
The IC50 of the first is 5.4-fold higher: 2.72 µM for the first, 0.506 µM for the second.

Compared with `Cc1ccc(-n2c(C(=O)N3CCC3)nc3cccnc32)cc1F` [Example 18, Azetidin-1-yl[3-(3-fluoro-4-methylphenyl)-3H-imidazo[4,5-b]pyridin-2-yl]methanone], `O=C(c1nc2cccnc2n1-c1ccc(Cl)cc1)N1CCC1` [Example 16, Azetidin-1-yl[3-(4-chlorophenyl)-3H-imidazo[4,5-b]pyridin-2-yl]methanone] is 4-fold higher in IC50: 0.0487 µM for the first, 0.196 µM for the second. The first is the more potent here.

`N#Cc1ccc(-n2c(C(=O)NC3CC3)nc3cccnc32)cc1` [Example 42, 3-(4-Cyanophenyl)-N-cyclopropyl-3H-imidazo[4,5-b]pyridine-2-carboxamide] and `Cc1ccc(-n2c(C(=O)NC3CC3)nc3cccnc32)cc1` [Example 29, N-Cyclopropyl-3-(4-methylphenyl)-3H-imidazo[4,5-b]pyridine-2-carboxamide] are within 1.5-fold of each other in IC50: 0.276 µM for the first, 0.225 µM for the second.

Compared with `O=C(c1nc2cccnc2n1-c1cncc(Cl)c1)N1CCC1` [Example 38, Azetidin-1-yl[3-(5-chloropyridin-3-yl)-3H-imidazo[4,5-b]pyridin-2-yl]methanone], `O=C(NC1CC1)c1nc2cccnc2n1-c1cc(Cl)cc(Cl)c1` [Example 63, N-Cyclopropyl-3-(3,5-dichlorophenyl)-3H-imidazo[4,5-b]pyridine-2-carboxamide] is 6.9-fold lower in IC50: 0.466 µM for the first, 0.068 µM for the second. The second is the more potent here.

First: Cc1cc(F)ccc1-n1c(C(=O)NC2CC2)nc2cccnc21 [Example 60, N-Cyclopropyl-3-(4-fluoro-2-methylphenyl)-3H-imidazo[4,5-b]pyridine-2-carboxamide]
Second: Cc1ccc(Cl)c(-n2c(C(=O)NC3CC3)nc3cccnc32)c1 [Example 91, 3-(2-Chloro-5-methylphenyl)-N-cyclopropyl-3H-imidazo[4,5-b]pyridine-2-carboxamide]
The IC50 of the first is 7.9-fold lower: 1.2 µM for the first, 9.42 µM for the second.

Going from `CCCNC(=O)c1nc2cccnc2n1-c1ccc(Cl)cc1` [Example 13, 3-(4-Chlorophenyl)-N-propyl-3H-imidazo[4,5-b]pyridine-2-carboxamide] to `NC(=O)c1nc2cccnc2n1-c1ccc(Cl)c(F)c1` [Example 17, 3-(4-Chloro-3-fluorophenyl)-3H-imidazo[4,5-b]pyridine-2-carboxamide], the IC50 rises from 0.944 µM to 8.51 µM (9-fold). The first is the more potent here.

`O=C(NC1CC1)c1nc2cccnc2n1-c1ccccc1` [Example 57, N-Cyclopropyl-3-phenyl-3H-imidazo[4,5-b]pyridine-2-carboxamide] and `O=C(NC1CC1)c1nc2cccnc2n1C1Cc2ccccc2C1` [Example 47, N-Cyclopropyl-3-(2,3-dihydro-1H-inden-2-yl)-3H-imidazo[4,5-b]pyridine-2-carboxamide] are within 1.5-fold of each other in IC50: 1.16 µM for the first, 1.26 µM for the second.

`N#Cc1c(F)cc(-n2c(C(=O)NC3CC3)nc3cccnc32)cc1F` [Example 20, 3-(4-Cyano-3,5-difluorophenyl)-N-cyclopropyl-3H-imidazo[4,5-b]pyridine-2-carboxamide] gave an IC50 of 0.0138 µM.
